Laboratory results reported in PMC8587653 (Molecules, 2021).

Legend:
[1] = molecular target: butyrylcholinesterase (E.C. 3.1.1.8, from horse serum) (Equus caballus, UniProt P81908); assay: In vitro butyrylcholinesterase inhibition assay (Ellman's method); assay type: biochemical; conditions: for Butyrylcholinesterse (BChE) %inhibition: compounds with <50% inhibition
[2] = molecular target: Acetylcholinesterase (E.C.3.1.1.7, from electric eel) (Electrophorus electricus, UniProt O42275); assay: biochemical; assay type: biochemical; conditions: for IC50: electric eel AChE, pH 7.7, 37 °C, triplicate, read-out: Acetylcholinesterase (AChE) IC50 ± SEM
acetylcholinesterase = acetylcholinesterase (Electrophorus electricus, UniProt O42275); assay: Kinetics studies, mechanism of inhibition (Lineweaver-Burk); assay type: biochemical, electric eel; conditions: substrate acetylthiocholine iodide; Vmax not affected, Km increased
Method: Enzyme kinetics were used to determine the mechanism of acetylcholinesterase inhibition. Lineweaver-Burk graph ([…]) were used for the determination of the type of inhibition and analysis of effect of inhibitor on Vmax and Kₘ. The slope Km/Vmax of each line in the Lineweaver-Burk plot was plotted against different concentrations of substrate and chemicals to determine the value of Ki.
Kinetics studies were performed on 5b and 5d with different concentrations of compounds and substrate. Four concentrations of 1 mM compound 5b (0, 0.06, 0.12, 0.18 µM), compound 5d (0, 0.3, 0.6, 0.9 µM) and four concentrations of substrate (0, 0.5, 1.0, 1.5 and 2.0 mM showing 1/S as 0.0, 2.0, 1.0, 0.667 and 0.5, respectively) were made. Both compounds competes with substrate (acetylthiocholine iodide) for binding in the active site of acetylcholinesterase.
Michaelis-Menten kinetics experiments were used to determine the type of enzyme inhibition. […] For this purpose, the initial rates of the enzyme inhibition at four concentrations of substrate (0, 0.5, 1.0, 1.5, 2.0 mM) in the absence and presence of four different concentrations of compound 5b (0, 0.06, 0.12, 0.18 µM) and compound 5d (0, 0.3, 0.6, 0.9 µM) against acetylcholinesterase were measured.

Chain of butyrylcholinesterase (E.C. 3.1.1.8, from horse serum) (P81908 whole entry): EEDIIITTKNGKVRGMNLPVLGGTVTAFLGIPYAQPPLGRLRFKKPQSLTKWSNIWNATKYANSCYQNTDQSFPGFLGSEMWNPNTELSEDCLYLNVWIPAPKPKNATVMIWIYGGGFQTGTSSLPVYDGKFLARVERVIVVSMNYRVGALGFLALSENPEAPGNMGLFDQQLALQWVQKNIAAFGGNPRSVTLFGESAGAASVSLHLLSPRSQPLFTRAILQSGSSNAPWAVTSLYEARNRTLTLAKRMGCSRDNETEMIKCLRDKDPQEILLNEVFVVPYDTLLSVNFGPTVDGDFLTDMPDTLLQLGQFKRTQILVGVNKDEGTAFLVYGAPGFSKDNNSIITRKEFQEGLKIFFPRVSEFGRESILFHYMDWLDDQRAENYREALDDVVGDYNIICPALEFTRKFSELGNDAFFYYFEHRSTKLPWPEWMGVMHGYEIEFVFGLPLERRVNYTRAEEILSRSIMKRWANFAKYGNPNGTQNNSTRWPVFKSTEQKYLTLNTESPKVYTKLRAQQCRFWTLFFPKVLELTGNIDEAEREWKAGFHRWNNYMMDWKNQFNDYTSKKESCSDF
Chain of Acetylcholinesterase (E.C.3.1.1.7, from electric eel) (O42275 24-633): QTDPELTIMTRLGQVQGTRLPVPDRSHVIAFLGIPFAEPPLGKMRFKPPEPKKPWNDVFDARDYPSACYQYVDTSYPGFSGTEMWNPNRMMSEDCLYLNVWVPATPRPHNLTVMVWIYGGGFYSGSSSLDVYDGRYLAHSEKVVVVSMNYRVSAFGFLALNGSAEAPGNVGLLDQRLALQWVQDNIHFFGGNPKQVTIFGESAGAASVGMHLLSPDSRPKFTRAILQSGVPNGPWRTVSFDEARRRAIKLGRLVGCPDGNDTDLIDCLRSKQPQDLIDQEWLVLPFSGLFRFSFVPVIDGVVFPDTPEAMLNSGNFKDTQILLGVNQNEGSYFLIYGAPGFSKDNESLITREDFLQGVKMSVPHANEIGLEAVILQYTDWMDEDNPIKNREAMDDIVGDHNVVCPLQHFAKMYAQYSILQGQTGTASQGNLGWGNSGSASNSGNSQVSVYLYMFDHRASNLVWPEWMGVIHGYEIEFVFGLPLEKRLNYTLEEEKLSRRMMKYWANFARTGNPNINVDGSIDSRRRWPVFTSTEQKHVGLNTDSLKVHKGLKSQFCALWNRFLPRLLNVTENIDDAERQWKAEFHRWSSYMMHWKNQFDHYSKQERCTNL
Chain of acetylcholinesterase (O42275 24-633): as above

Compound | Butyrylcholinesterse (BChE) %inhibition [1] | IC50 [2] | IC50 ([1]; horse serum BChE, pH 7.7, 37 °C, triplicate, read-out: Butyrylcholinesterse (BChE) IC50 ± SEM) | Mode of inhibition of acetylcholinesterase (acetylcholinesterase) | Potency against AChE relative to standard drug galantamine ([2]; ratio of IC50 values vs galantamine)
COc1ccc2cc(C=NNC(=S)Nc3ccccc3)c(Cl)nc2c1 [Compound 5i, 2-((2-Chloro-7-methoxyquinolin-3-yl)methylene)-N-phenylhydrazinecarbothioamide] | 24.0% | 60.9 ± 6.57 µM | – | – | –
COc1ccc2nc(Cl)c(C=NNC(=S)Nc3ccccc3)cc2c1 [Compound 5g, 2-((2-Chloro-6-methoxyquinolin-3-yl)methylene)-N-phenylhydrazinecarbothioamide] | – | 34.2 ± 1.02 µM | 11.3 ± 0.67 µM | – | –
S=C(NCCN1CCOCC1)NN=Cc1cc2ccccc2nc1Cl [Compound 5a, 2-((2-Chloroquinolin-3-yl)methylene)-N-(2-morpholinoethyl)hydrazinecarbothioamide] | 3.32% | 2.95 ± 0.24 µM | – | – | –
S=C(NCCN1CCOCC1)NN=Cc1cc2ccc(Cl)cc2nc1Cl [Compound 5e, 2-((2,7-Dichloroquinolin-3-yl)methylene)-N-(2-morpholinoethyl)hydrazinecarbothioamide] | 1.88% | 10.5 ± 0.16 µM | – | – | –
S=C(NN=Cc1cc2ccc(Cl)cc2nc1Cl)Nc1ccccc1 [Compound 5k, 2-((2,7-Dichloroquinolin-3-yl)methylene)-N-phenylhydrazinecarbothioamide] | 20.3% | 47.1 ± 1.45 µM | – | – | –
S=C(NN=Cc1cc2ccccc2nc1Cl)Nc1ccccc1 [Compound 5f, 2-((2-Chloroquinolin-3-yl)methylene)-N-phenylhydrazinecarbothioamide] | 4.47% | 23.2 ± 1.28 µM | – | – | –
Cc1ccc2cc(C=NNC(=S)Nc3ccccc3)c(Cl)nc2c1 [Compound 5j, 2-((2-Chloro-7-methylquinolin-3-yl)methylene)-N-phenylhydrazinecarbothioamide] | 16.8% | 46.5 ± 3.12 µM | – | – | –
Cc1ccc2cc(C=NNC(=S)NCCN3CCOCC3)c(Cl)nc2c1 [Compound 5d, 2-((2-Chloro-7-methylquinolin-3-yl)methylene)-N-(2-morpholinoethyl)hydrazinecarbothioamide] | 1.52% | 0.55 ± 0.01 µM | – | competitive inhibition | –
COc1ccc2cc(C=NNC(=S)NCCN3CCOCC3)c(Cl)nc2c1 [Compound 5c, 2-((2-Chloro-7-methoxyquinolin-3-yl)methylene)-N-(2-morpholinoethyl)hydrazinecarbothioamide] | 1.33% | 5.53 ± 0.11 µM | – | – | –
COc1ccc2nc(Cl)c(C=NNC(=S)NCCN3CCOCC3)cc2c1 [Compound 5b, 2-((2-Chloro-6-methoxyquinolin-3-yl)methylene)-N-(2-morpholinoethyl)hydrazinecarbothioamide] | 8.12% | 0.12 ± 0.02 µM | – | competitive inhibition | 5 fold
Cc1ccc2nc(Cl)c(C=NNC(=S)Nc3ccccc3)cc2c1 [Compound 5h, 2-((2-Chloro-6-methylquinolin-3-yl)methylene)-N-phenylhydrazinecarbothioamide] | 32.6% | 49.3 ± 2.49 µM | – | – | –
